The results in this text go back to US8802678B2, “Carbonylated (aza) cyclohexanes as dopamine D3 receptor ligands” (Bioprojet, priority 2006, dated 2014).

Consider `N#CCCCC(=O)N[C@H]1CC[C@H](CCN2CCN(c3ccc(C(F)(F)F)cc3F)CC2)CC1` [Example 646, 4-Cyano-N-(4-{2-[4-(2-fluoro-4-trifluoromethylphenyl)piperazin-1-yl]ethyl}cyclohexyl)-butanamide], for which the melting point worked out at 165 °C.
Then `COCCCC(=O)N[C@H]1CC[C@H](CCN2CCN(c3ccc(F)c(F)c3F)CC2)CC1` [Example 652, 4-Methoxy-N-(4-{2-[4-(2,3,4-trifluorophenyl)piperazin-1-yl]ethyl}cyclohexyl)butanamide], with 203 °C; and `N#Cc1cccc(N2CCN(CC[C@H]3CC[C@H](NC(=O)CCC(F)(F)F)CC3)CC2)c1` [Example 653, N-(4-{2-[4-(3-Cyanophenyl)piperazin-1-yl]ethyl}cyclohexyl)-4,4,4-trifluorobutanamide], with 176 °C.
The compound `CC(=O)CN1CCC(CCN2CCN(c3ccc(F)c(F)c3F)CC2)CC1` [Example 656] yielded a melting point of 88 °C.
`CC(=O)CN1CCC(CCN2CCN(c3ccc(F)c(C#N)c3)CC2)CC1` [Example 659, 2-Fluoro-5-(4-{2-[1-(2-oxopropyl)piperidin-4-yl]ethyl}piperazin-1-yl)benzonitrile] displayed a melting point of 102 °C.
`N#CCC(=O)N[C@H]1CC[C@H](CCN2CCN(c3ccc(F)c(C#N)c3)CC2)CC1` [Example 660, 2-Cyano-N-(4-{2-[4-(3-cyano-4-fluorophenyl)piperazin-1-yl]ethyl}cyclohexyl)acetamide] displayed a melting point of 185 °C.
As for `COCCCC(=O)N[C@H]1CC[C@H](CCN2CCN(c3ccc(F)c(C#N)c3)CC2)CC1` [Example 661, N-(4-{2-[4-(3-Cyano-4-fluorophenyl)piperazin-1-yl]ethyl}cyclohexyl)-4-methoxybutanamide], the figure is 197 °C.
In turn, `N#CCCCC(=O)N[C@H]1CC[C@H](CCN2CCN(c3ccc(F)c(C#N)c3)CC2)CC1` [Example 662, 4-Cyano-N-(4-{2-[4-(3-cyano-4-fluorophenyl)piperazin-1-yl]ethyl}cyclohexyl)butanamide] came in with a melting point of 158 °C.
Consider `CC(=O)CN1CCC(CCN2CCN(c3cc(F)ccc3F)CC2)CC1` [Example 663, 1-(4-{2-[4-(2,5-Difluorophenyl)piperazin-1-yl]ethyl}piperidin-1-yl)propan-2-one], for which the melting point is 90 °C.
`N#CCC(=O)N[C@H]1CC[C@H](CCN2CCN(c3cc(F)cc(C(F)(F)F)c3)CC2)CC1` [Example 664, 2-Cyano-N-(4-{2-[4-(3-fluoro-5-trifluoromethylphenyl)piperazin-1-yl]ethyl}cyclohexyl)acetamide]: the melting point turned out to be 178 °C.
`N#CCCCC(=O)N[C@H]1CC[C@H](CCN2CCN(c3cc(F)cc(C(F)(F)F)c3)CC2)CC1` [Example 665, 4-Cyano-N-(4-{2-[4-(3-fluoro-5-trifluoromethylphenyl)piperazin-1-yl]ethyl}cyclohexyl)butanamide] gave a melting point of 163 °C.
As for `N#CCCC(=O)N[C@H]1CC[C@H](CCN2CCN(c3cc(C(F)(F)F)ccc3F)CC2)CC1` [Example 668, 3-Cyano-N-(4-{2-[4-(2-fluoro-5-trifluoromethylphenyl)piperazin-1-yl]ethyl}cyclohexyl)propanamide], the melting point is 164 °C.
As for `O=C(CC(F)(F)F)N[C@H]1CC[C@H](CCN2CCN(c3cc(C(F)(F)F)ccc3F)CC2)CC1` [Example 670, 3,3,3-Trifluoro-N-(4-{2-[4-(2-fluoro-5-trifluoromethylphenyl)piperazin-1-yl]ethyl}cyclohexyl) propanamide], the melting point turned out to be 177 °C.
As for `NC(=O)CC(=O)N[C@H]1CC[C@H](CCN2CCN(c3cc(C(F)(F)F)ccc3F)CC2)CC1` [Example 671, N-(4-{2-[4-(2-Fluoro-5-trifluoromethylphenyl)piperazin-1-yl]ethyl}cyclohexyl)-malonamide], the figure is 185 °C; as for `CCc1ccc(F)c(N2CCN(CC[C@H]3CC[C@H](NC(=O)CC#N)CC3)CC2)c1` [Example 673, 2-Cyano-N-(4-{2-[4-(5-ethyl-2-fluorophenyl)piperazin-1-yl]ethyl}cyclohexyl)acetamide], 180 °C.
In the case of `CCc1ccc(F)c(N2CCN(CC[C@H]3CC[C@H](NC(=O)CCCC#N)CC3)CC2)c1` [Example 674, 4-Cyano-N-(4-{2-[4-(5-ethyl-2-fluorophenyl)piperazin-1-yl]ethyl}cyclohexyl)butanamide], the melting point came to 153 °C.
The compound `COCCCC(=O)N[C@H]1CC[C@H](CCN2CCN(c3cccc(C)c3)CC2)CC1` [Example 675, 4-Methoxy-N-{4-[2-(4-m-tolylpiperazin-1-yl)ethyl]cyclohexyl}butanamide] came in with a melting point of 148 °C.
Turning to `COCCCC(=O)N[C@H]1CC[C@H](CCN2CCN(c3ccc(Cl)c(Cl)c3F)CC2)CC1` [Example 684, N-(4-{2-[4-(3,4-Dichloro-2-fluoro-phenyl)piperazin-1-yl]ethyl}cyclohexyl)-4-methoxybutanamide], the melting point came to 210 °C.
Take `CSc1cccc(N2CCN(CCC3CCN(CC(C)=O)CC3)CC2)c1` [Example 686, 1-(4-{2-[4-(3-Methylsulfanyl-phenyl)piperazin-1-yl]ethyl}-piperidin-1-yl)propan-2-one]: the melting point came to 113 °C.
Turning to `N#CCC(=O)N[C@H]1CC[C@H](CCN2CCN(c3ccc(F)c(C#N)c3F)CC2)CC1` [Example 687, 2-Cyano-N-(4-{2-[4-(3-cyano-2,4-difluorophenyl)piperazin-1-yl]ethyl}cyclohexyl)acetamide], the melting point stood at 210 °C.
As for `N#CCCCC(=O)N[C@H]1CC[C@H](CCN2CCN(c3ccc(F)c(C#N)c3F)CC2)CC1` [Example 688, 4-Cyano-N-(4-{2-[4-(3-cyano-2,4-difluorophenyl)piperazin-1-yl]ethyl}cyclohexyl)butanamide], the melting point turned out to be 203 °C.
The compound `COCCCC(=O)N[C@H]1CC[C@H](CCN2CCN(c3cccc(F)c3C)CC2)CC1` [Example 689, N-(4-{2-[4-(3-Fluoro-2-methylphenyl)piperazin-1-yl]ethyl}cyclohexyl)-4-methoxybutanamide] came in with a melting point of 172 °C.
`CC(=O)CN1CCC(CCN2CCN(c3ccc(F)c(C#N)c3F)CC2)CC1` [Example 690, 2,6-Difluoro-3-(4-{2-[1-(2-oxo-propyl)piperidin-4-yl]ethyl}piperazin-1-yl)benzonitrile] displayed a melting point of 108 °C.
For `COCCCC(=O)N[C@H]1CC[C@H](CCN2CCN(c3cc(Cl)cc(Cl)c3)CC2)CC1` [Example 691, N-(4-{2-[4-(3,5-Dichlorophenyl)piperazin-1-yl]ethyl}cyclohexyl)-4-methoxybutanamide], the melting point worked out at 184 °C.
`COCCCC(=O)N[C@H]1CC[C@H](CCN2CCN(c3ccc(F)c(C#N)c3F)CC2)CC1` [Example 692, N-(4-{2-[4-(3-Cyano-2,4-difluorophenyl)piperazin-1-yl]ethyl}cyclohexyl)-4-methoxybutanamide] had a melting point of 211 °C.
`CC(=O)CN1CCC(CCN2CCN(c3cc(F)c(F)c(F)c3)CC2)CC1` [Example 697, 1-(4-{2-[4-(3,4,5-Trifluoro-phenyl)-piperazin-1-yl]ethyl}piperidin-1-yl)propan-2-one] gave a melting point of 86 °C.
For the compound `COCCCC(=O)N[C@H]1CC[C@H](CCN2CCN(c3ccc(Cl)cc3)CC2)CC1` [Example 698, N-(4-{2-[4-(4-Chlorophenyl)-piperazin-1-yl]ethyl}cyclohexyl)-4-methoxybutanamide], the melting point came out at 204 °C.
In turn, `COCC(=O)N[C@H]1CC[C@H](CCN2CCN(c3cc(C(F)(F)F)ccc3F)CC2)CC1` [Example 701, N-(4-{2-[4-(2-Fluoro-5-trifluoromethylphenyl)piperazin-1-yl]ethyl}cyclohexyl)-2-methoxyacetamide] came in with a melting point of 139 °C.
Take `O=C(N[C@H]1CC[C@H](CCN2CCN(c3cc(C(F)(F)F)ccc3F)CC2)CC1)C1=CCCC1` [Example 705]: the melting point came out at 199 °C.
`CS(=O)(=O)CC(=O)N[C@H]1CC[C@H](CCN2CCN(c3cc(C(F)(F)F)ccc3F)CC2)CC1` [Example 706, N-(4-{2-[4-(2-Fluoro-5-trifluoromethylphenyl)piperazin-1-yl]ethyl}cyclohexyl)-2-methanesulfonylacetamide] displayed a melting point of 192 °C.
Then `N#CCC(=O)N[C@H]1CC[C@H](CCN2CCN(c3cc(F)c(F)c(F)c3F)CC2)CC1` [Example 708, 2-Cyano-N-(4-{2-[4-(2,3,4,5-tetrafluorophenyl)piperazin-1-yl]ethyl}cyclohexyl)acetamide], with 214 °C; and `N#CCC(=O)N[C@H]1CC[C@H](CCN2CCN(c3ccc(Cl)cc3Cl)CC2)CC1` [Example 709, 2-Cyano-N-(4-{2-[4-(2,4-dichlorophenyl)piperazin-1-yl]ethyl}cyclohexyl)acetamide], with 189 °C; and `CC(=O)CN1CCC(CCN2CCN(c3ccc4c(c3)OCCO4)CC2)CC1` [Example 711, 1-(4-{2-[4-(2,3-Dihydrobenzo[1,4]dioxin-6-yl)piperazin-1-yl]ethyl}piperidin-1-yl)propan-2-one], with 126 °C.
As to `COCCCC(=O)N[C@H]1CC[C@H](CCN2CCN(c3cc(C)cc(C)c3)CC2)CC1` [Example 715, N-(4-{2-[4-(3,5-Dimethylphenyl)-piperazin-1-yl]ethyl}cyclohexyl)-4-methoxybutanamide], the melting point was 195 °C.
On to `Cc1cc(C)cc(N2CCN(CC[C@H]3CC[C@H](NC(=O)CCC#N)CC3)CC2)c1` [Example 716, 3-Cyano-N-(4-{2-[4-(3,5-dimethylphenyl)piperazin-1-yl]ethyl}cyclohexyl)propanamide], for which the melting point came out at 175 °C.
`N#CCC(=O)N[C@H]1CC[C@H](CCN2CCN(c3cc(Cl)c(Cl)cc3Cl)CC2)CC1` [Example 717, 2-Cyano-N-(4-{2-[4-(2,4,5-trichlorophenyl)piperazin-1-yl]ethyl}cyclohexyl)acetamide] displayed a melting point of 200 °C.
Compound `COCC(=O)N[C@H]1CC[C@H](CCN2CCN(c3ccc(Cl)c(Cl)c3F)CC2)CC1` [Example 719, N-(4-{2-[4-(3,4-Dichloro-2-fluorophenyl)piperazin-1-yl]ethyl}cyclohexyl)-2-methoxyacetamide] yielded a melting point of 172 °C.

What is called melting point is the temperature of the solid-liquid transition.
